Reference: PubChem BioAssay (NCI)
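Step 1: Grow cells in 96-well plates. Step 2: Expose to compound for 48 hours at 5 concentrations. Step 3: Interpolate endpoints linearly; if unreached, use highest concentration. GI50 = concentration required for 50% inhibition of growth. Definition used: TGI = concentration required for complete inhibition of growth.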

How the values were obtained:
Experiment in all cases: NCI anticancer screen, dose series, 48 h
786-0 renal = tested on: 786-0 renal
A498 renal = tested on: A498 renal
A549 NSCLC = tested on: A549 NSCLC
ACHN renal = tested on: ACHN renal
BT-549 breast = tested on: BT-549 breast
CAKI-1 renal = tested on: CAKI-1 renal
CCRF-CEM leukemia = tested on: CCRF-CEM leukemia
COLO 205 colon = tested on: COLO 205 colon
DU-145 prostate = tested on: DU-145 prostate
EKVX NSCLC = tested on: EKVX NSCLC
HCC-2998 colon = tested on: HCC-2998 colon
HCT-116 colon = tested on: HCT-116 colon
HCT-15 colon = tested on: HCT-15 colon
HL-60(TB) leukemia = tested on: HL-60(TB) leukemia
HOP-62 NSCLC = tested on: HOP-62 NSCLC
HOP-92 NSCLC = tested on: HOP-92 NSCLC
HS 578T breast = tested on: HS 578T breast
HT29 colon = tested on: HT29 colon
IGROV1 ovarian = tested on: IGROV1 ovarian
K-562 leukemia = tested on: K-562 leukemia
KM12 colon = tested on: KM12 colon
LOX IMVI melanoma = tested on: LOX IMVI melanoma
M14 melanoma = tested on: M14 melanoma
MALME-3M melanoma = tested on: MALME-3M melanoma
MCF7 breast = tested on: MCF7 breast
MDA-MB-231 breast = tested on: MDA-MB-231 breast
MDA-MB-435 = tested on: MDA-MB-435
MOLT-4 leukemia = tested on: MOLT-4 leukemia
NCI-H226 lung = tested on: NCI-H226 lung

With `COc1cc(/C=C/C(=O)c2ccc(F)cc2)ccc1OCCCN1CCN(CC(=O)Nc2ccc(Cl)cc2C(=O)c2ccccc2Cl)CC1` the GI50 (786-0 renal) was 3.86 µM, the TGI (786-0 renal) was 15.2 µM and the GI50 (A498 renal) was 29.4 µM. It also gave a TGI (A498 renal) greater than 100 µM, a GI50 (A549 NSCLC) of 15.9 µM and a TGI (A549 NSCLC) greater than 100 µM. The GI50 (ACHN renal) was 12.5 µM, the TGI (ACHN renal) was 32.3 µM and the GI50 (BT-549 breast) was 10.8 µM. It also gave a TGI (BT-549 breast) of 26.2 µM, a GI50 (CAKI-1 renal) of 11 µM and a TGI (CAKI-1 renal) of 32.5 µM. It also gave a GI50 (CCRF-CEM leukemia) of 2.65 µM, a TGI (CCRF-CEM leukemia) of 9.3 µM and a GI50 (COLO 205 colon) of 4.47 µM. For the same compound, the TGI (COLO 205 colon) was 23.8 µM, the GI50 (DU-145 prostate) was 29.8 µM and the TGI (DU-145 prostate) was greater than 100 µM. It also gave a GI50 (EKVX NSCLC) of 31.3 µM, a TGI (EKVX NSCLC) greater than 100 µM and a GI50 (HCC-2998 colon) of 16.6 µM. For the same compound, the TGI (HCC-2998 colon) was 40.1 µM, the GI50 (HCT-116 colon) was 2.23 µM and the TGI (HCT-116 colon) was 11.1 µM. The GI50 (HCT-15 colon) was 4.09 µM, the TGI (HCT-15 colon) was 19.5 µM and the GI50 (HL-60(TB) leukemia) was 4.23 µM. The TGI (HL-60(TB) leukemia) was 25.9 µM, the GI50 (HOP-62 NSCLC) was 15.5 µM and the TGI (HOP-62 NSCLC) was 31.9 µM. The GI50 (HOP-92 NSCLC) was 1.38 µM, the TGI (HOP-92 NSCLC) was 10.3 µM and the GI50 (HS 578T breast) was 7.01 µM. For the same compound, the TGI (HS 578T breast) was 46.3 µM, the GI50 (HT29 colon) was 2.05 µM and the TGI (HT29 colon) was 10.4 µM. The GI50 (IGROV1 ovarian) was 6.17 µM, the TGI (IGROV1 ovarian) was 41.6 µM and the GI50 (K-562 leukemia) was 3.6 µM. The TGI (K-562 leukemia) was greater than 100 µM, the GI50 (KM12 colon) was 5.58 µM and the TGI (KM12 colon) was 22.2 µM. It also gave a GI50 (LOX IMVI melanoma) of 3.97 µM, a TGI (LOX IMVI melanoma) of 14.6 µM and a GI50 (M14 melanoma) of 3.4 µM. For the same compound, the TGI (M14 melanoma) was 13.3 µM, the GI50 (MALME-3M melanoma) was 4.23 µM and the TGI (MALME-3M melanoma) was 15.7 µM. It also gave a GI50 (MCF7 breast) of 2.69 µM, a TGI (MCF7 breast) of 12.1 µM and a GI50 (MDA-MB-231 breast) of 11.6 µM. The TGI (MDA-MB-231 breast) was 27.1 µM, the GI50 (MDA-MB-435) was 8.19 µM and the TGI (MDA-MB-435) was 22.5 µM. For the same compound, the GI50 (MOLT-4 leukemia) was 3.23 µM, the TGI (MOLT-4 leukemia) was greater than 100 µM and the GI50 (NCI-H226 lung) was 18.4 µM.
